# Test results as given in patent US9844519B1, “Method of treating TDP-43 proteinopathies using hexachlorophene” (University of South Florida, priority 2014, dated 2017).
# Where two headings read alike, the source gives them in different places. Peptide text beside a SMILES is read from it. * marks the point of attachment. Cbz = O=C(OCc1ccccc1)*
# Experiments:
# TDP-43 = biological target: T1, TDP-43 (Mus musculus, UniProt Q921F2); assay: InCell Western (ICW) drug screen for TDP-43 levels in N9 cells; format: cell-based; conditions: for % TDP43 level: N9 cells treated 24 hours, DMSO vehicle control = 100
# T1 construct: N9 cells expressing endogenous TDP-43 were treated with various concentrations of B10; endogenous in cells; host or cells: N9 mouse microglial cells
# T1 sequence (Q921F2 whole entry): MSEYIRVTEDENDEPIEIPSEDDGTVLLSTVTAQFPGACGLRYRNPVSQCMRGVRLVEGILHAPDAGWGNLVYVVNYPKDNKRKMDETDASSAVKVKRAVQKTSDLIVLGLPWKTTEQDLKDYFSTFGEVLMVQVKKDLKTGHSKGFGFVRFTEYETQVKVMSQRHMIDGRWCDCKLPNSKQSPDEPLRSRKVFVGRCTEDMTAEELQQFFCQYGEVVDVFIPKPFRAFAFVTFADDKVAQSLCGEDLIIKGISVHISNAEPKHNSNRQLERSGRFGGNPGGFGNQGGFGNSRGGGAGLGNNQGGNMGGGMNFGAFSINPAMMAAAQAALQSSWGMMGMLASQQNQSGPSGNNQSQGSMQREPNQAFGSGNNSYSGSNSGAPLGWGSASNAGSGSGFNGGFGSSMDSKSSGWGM
# Protocol: To optimize the ICW technique for screening TDP-43 targeting drugs, N9 cells were seeded in a 96-well plate and processed for ICW by using various dilution of TDP-43 antibody.
# For drug screening, N9 cells were treated with a panel of candidate drug molecules for 24 hours and the effect on TDP-43 levels was analyzed using the InCell Western assay.
# To optimize TDP-43 targeting ICW, N9 cells were seeded in a 96-well plate and probed with different dilutions of TDP-43 antibody as previously described (Jinwal and Dickey, 2011). For the identification of candidate drug molecules, N9 cells were treated with an array of drugs for 24 hours and processed for ICW (Jinwal and Dickey, 2011). In brief, cells were fixed, washed with PBS and incubated in blocking buffer. Cells were then incubated in primary antibody to TDP-43 (1:1000) and GAPDH (1:3000) for overnight. After washing with 0.2% Tween-20 PBS, cells were incubated with fluorescently tagged secondary antibodies for 1 hour and 30 minutes. Fluorescence intensity was then recorded and quantified using the Odyssey Infrared Imaging System (LI-COR). ICW experiments were performed in duplicate.
# endogenous TDP-43 [1] = biological target: T2, endogenous TDP-43 (Mus musculus, UniProt Q921F2); assay: Western blotting of endogenous TDP-43 in N9 cells, dose response; format: cell-based; conditions: 3 μM, 24 hours, Western blot
# T2 construct: N9 cells expressing endogenous TDP-43 were treated with various concentrations of B10; endogenous in cells; host or cells: N9 mouse microglial cells
# T2 sequence (Q921F2 whole entry): as above
# Protocol: N9 cells were treated with different concentration of B10 for 24 hours and levels of endogenous TDP-43 were determined by Western blotting.
# For dose response experiments, N9 cells were treated with different concentrations of B10 for 24 hours. […] An equivalent volume of DMSO was used for control treatments for both sets of experiments. […] Briefly, cells were lysed in Mammalian-Protein Extraction Reagent (M-PER; Pierce, Rockford, Ill.) containing 1× protease inhibitor mixture (Calbiochem, Billerica, Mass.), 1 mM phenylmethylsulfonyl fluoride (PMSF) and 1× phosphatase inhibitor I and II cocktails (Sigma). Protein concentration was determined using the Coomassie (Bradford) Protein Assay Kit (Pierce). Samples were analyzed for Myc and GAPDH by Western blotting. […] Drug treatment experiments were repeated at least two times.
# [2] = system: Myc-tagged WT TDP-43, C25 mutant, M337V and Q331K; assay: Western blotting of Myc-tagged WT and mutant TDP-43 transfected in HEK293 cells; format: cell-based; conditions: HEK293 cells transfected with Myc-tagged WT, 3 μM, 24 hours
# HEK293 cells = format: cell-based; conditions: human, 24 h
# Protocol: (§1) Whether B10 treatment causes cytotoxicity was next tested. The inventors performed the LDH assay with N9 and HEK293 cells. […] B10 causes ˜3% and ˜13% cytotoxicity at 3 and 10 μM in the HEK293 cells, respectively (FIG. 5B).
# (§2) The LDH assay was performed using the CytoTox 96 Non-Radioactive Cytotoxicity Assay from Promega as per manufacturer's instructions. Briefly, N9 and HEK cells were treated with different concentrations of hexachlorophene for 24 hours. Cells treated with a lethal dose of 150 μM hexachlorophene were used as the maximal LDH release control. Culture supernatant was collected and centrifuged at 2000 rpm to pellet debris. 50 μl of supernatant from each sample was transferred to a flat-bottom 96 well plate. The Substrate Mix provided in the kit was reconstituted with Assay Buffer. 50 μl of the reconstituted Substrate Mix was added to the culture supernatant. The plate was incubated at room temperature, protected from light, for 30 minutes. 50 μl of Stop Solution was added to each well at the end of the incubation period. Absorbance was read at 490 nm. The experiment was performed in triplicate for each cell line. Statistical analysis was performed using Microsoft Excel.
# N9 cells = format: cell-based; conditions: mouse, 24 h
# Protocol: as §1, §2
# endogenous TDP-43 [3] = biological target: T3, endogenous TDP-43 (Homo sapiens, UniProt Q13148); assay: Western blotting of endogenous TDP-43 in HEK293 cells; format: cell-based; conditions: endogenous TDP-43, 3 μM, 24 hours, Western blot
# T3 construct: HEK293 cells expressing endogenous TDP-43 and FUS; endogenous in cells; host or cells: HEK293
# T3 sequence (Q13148 whole entry): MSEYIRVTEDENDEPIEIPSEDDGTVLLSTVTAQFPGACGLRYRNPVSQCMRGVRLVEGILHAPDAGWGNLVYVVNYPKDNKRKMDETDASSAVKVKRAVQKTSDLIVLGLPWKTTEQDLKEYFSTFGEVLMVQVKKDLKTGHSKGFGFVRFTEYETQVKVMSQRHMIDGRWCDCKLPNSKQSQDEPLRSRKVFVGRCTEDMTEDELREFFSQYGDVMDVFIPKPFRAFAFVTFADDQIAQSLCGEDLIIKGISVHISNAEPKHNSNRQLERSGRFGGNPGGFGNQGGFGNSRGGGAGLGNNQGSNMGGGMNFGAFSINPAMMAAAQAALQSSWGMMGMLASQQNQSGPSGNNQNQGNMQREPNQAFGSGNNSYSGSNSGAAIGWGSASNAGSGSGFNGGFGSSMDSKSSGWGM
# Protocol: (§3) HEK293 cells were treated with 3 and 10 μM B10 for 24 hours. An equivalent volume of DMSO was used for control treatments. […] Briefly, cells were lysed in Mammalian-Protein Extraction Reagent (M-PER; Pierce, Rockford, Ill.) containing 1× protease inhibitor mixture (Calbiochem, Billerica, Mass.), 1 mM phenylmethylsulfonyl fluoride (PMSF) and 1× phosphatase inhibitor I and II cocktails (Sigma). Protein concentration was determined using the Coomassie (Bradford) Protein Assay Kit (Pierce). Samples were analyzed using TDP-43, FUS, and GAPDH antibodies by Western blotting. Drug treatment experiments were performed in triplicate. For ubiquitinated protein analysis upon MG132 treatment, ubiquitin antibody (Santa Cruz Biotechnology) was used. Statistical analysis was performed using Microsoft Excel.
# FUS (Fused in Sarcoma) = assay: Western blotting of endogenous FUS in HEK293 cells; format: cell-based
# Protocol: as §3
# C25 mutant of TDP-43 = biological target: T4, C25 mutant of TDP-43 (Homo sapiens, UniProt Q13148); assay: Immunofluorescence of cytoplasmic C25 mutant TDP-43 in HEK293 cells; format: cell-based; conditions: 3 μM, 24 hours
# T4 construct: the C25 cleaved fragment that localizes to the cytosol; expressed in transfected cells; host or cells: HEK293
# T4 sequence (Q13148 219-414 limits assumed, change not shown): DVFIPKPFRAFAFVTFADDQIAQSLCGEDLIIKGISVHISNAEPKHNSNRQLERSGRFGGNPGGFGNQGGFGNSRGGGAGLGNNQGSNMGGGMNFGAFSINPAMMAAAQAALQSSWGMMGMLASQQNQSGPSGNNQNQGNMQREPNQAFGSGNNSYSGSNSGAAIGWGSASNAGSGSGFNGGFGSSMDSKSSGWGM
# Protocol: 24 hours after transfection, the medium was replaced and cells were treated with either DMSO or 3 μM B10 for 24 hours. […] Following three washes in PBS, cells were incubated in blocking buffer (1% BSA, 0.1% Tween-20 in PBS) for one hour. A mouse monoclonal antibody to the Myc tag at a dilution of 1:400 was applied for 1 hour. After three washes in PBS, cells were incubated with an Alexa488 tagged goat anti-mouse IgG secondary antibody at 1:800 for 1 hour. […] Coverslips were mounted on slides using Fluoromount G. Imaging was performed with a Zeiss AxioVision imager.
# ubiquitinated proteins = assay: Western blot of ubiquitinated proteins in HEK293 cell samples; format: cell-based; conditions: HEK293 samples from FIG. 4A, 24 hours, ubiquitin antibody
# Protocol: as §3
# [4] = system: C25-TDP-43 transgenic C. elegans; assay: Liquid thrashing motility assay in C25-TDP-43 transgenic C. elegans; format: in vivo; conditions: C25 worms on NGM plates containing 5 μM or 10 μM B10
# Protocol: (§4) For in vivo studies the inventors used a C. elegans model expressing the C25 fragment to analyze changes in behavior and pathological TDP-43 upon B10 treatment.
# (§5) The Solid Method of drug dosing was used in which age-synchronized C. elegans eggs were plated on Nematode Growth Media (NGM) plates containing DMSO vehicle or 5 μM B10 or 10 μM B10.
# (§6) A behavioral assay that measures liquid thrashing ability was used to analyze the effect of B10 treatment on motility in age synchronized C25 animals. For microscopic analysis adult worms were fixed on slide and imaged using fluorescence microscopy.
# C25-TDP-43 = biological target: T5, C25-TDP-43 (Homo sapiens, UniProt Q13148); assay: Fluorescence microscopy of C25-TDP-43 aggregates in head neurons of transgenic C. elegans; format: in vivo; conditions: C25 worms
# T5 construct: a C. elegans model expressing the C25 fragment; expressed in transfected cells; host or cells: transgenic C. elegans (neurons)
# T5 sequence (Q13148 219-414 limits assumed): as the sequence (Q13148 219-414 limits assumed, change not shown) above
# Protocol: as §4, §5, §6
# [5] = dose of about 10 mg/kg, transgenic TDP43 mouse model; cited from earlier work
# [6] = system: Wnt-β-catenin signaling pathway; conditions: B lymphoma cells; cited from earlier work
# amyloid beta (Aβ) = biological target: T6, amyloid beta (Aβ) (Homo sapiens, UniProt P05067); conditions: cited from earlier work
# T6 construct: the amyloid protein (Aβ) which is a proteolytic product of a precursor protein of much larger size
# T6 sequence (P05067 672-713 limits assumed): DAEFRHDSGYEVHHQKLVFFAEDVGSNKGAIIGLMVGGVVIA
# [7] = system: primary neuronal cultures; conditions: cited from earlier work
# rats = conditions: pre-treatment prior to administration of B10; cited from earlier work
structure (smiles),measurement,setting,value
"Oc1c(Cl)cc(Cl)c(Cl)c1Cc1c(O)c(Cl)cc(Cl)c1Cl [B10, Hexachlorophene]",% TDP43 level,TDP-43,63%
same,decrease in levels of TDP-43 compared to the control,"TDP-43; N9 cells, 24 hours",~40%
same,reduction of endogenous TDP-43 levels,endogenous TDP-43 [1],approximately 50%
same,decrease in levels of TDP-43 and its mutants,[2],approximately 50%
same,cytotoxicity (LDH release),HEK293 cells; 3 μM,~3%
same,cytotoxicity (LDH release),HEK293 cells; 10 μM,~13%
same,cytotoxicity (LDH release),N9 cells; 3 μM,~6%
same,cytotoxicity (LDH release),N9 cells; 10 μM,~23%
same,reduction of TDP-43 levels,endogenous TDP-43 [3],~50%
same,effect on levels of FUS,FUS (Fused in Sarcoma),increases levels of FUS
same,increase of FUS levels,"FUS (Fused in Sarcoma); 3 μM, 24 hours, Western blot",~300%
same,amount of cytoplasmic C25 mutant TDP-43,C25 mutant of TDP-43,decreases the amount of cytoplasmic C25 mutant TDP-43
same,levels of ubiquitinated proteins,ubiquitinated proteins,slight increase in ubiquitinated proteins
same,motility (liquid thrashing),[4],improved motility of C25 worms
same,accumulation of TDP-43 in neurons in the head region,C25-TDP-43,decreased the accumulation of TDP-43 in the neurons in the head region of C25 worms
same,brain permeability,[5],50%
same,effect on Wnt-β-catenin signaling pathway,[6],inhibit the Wnt-β-catenin signaling pathway in B lymphoma cells
same,effect on Aβ fibril formation,amyloid beta (Aβ),inhibit amyloid beta (Aβ) fibril formation
same,protection from Aβ-induced toxicity,[7],protect primary neuronal cultures from Aβ-induced toxicity
CCOc1ccc2c(c1)C(C)=CC(C)(C)N2 [ethoxyquin],protection from toxicity induced by B10,rats,protects rats from toxicity induced by B10
CC(C)C[C@@H](C=O)NC(=O)[C@H](CC(C)C)NC(=O)[C@H](CC(C)C)NC(=O)OCc1ccccc1 [MG132] (Cbz-Leu-Leu-Leu-aldehyde),levels of ubiquitinated proteins,ubiquitinated proteins,increase in ubiquitinated proteins
"CCCC(C(=O)OCCN(CC)CC)(c1ccccc1)c1ccccc1.Cl [SKF-525A, 2-diethylaminoethyl-2,2-diphenylvalerate-Hcl]",protection from toxicity induced by B10,rats,lessened toxicity
"CO[C@H]1/C=C/O[C@@]2(C)Oc3c(C)c(O)c4c(O)c(c(/C=N/N5CCN(C)CC5)c(O)c4c3C2=O)NC(=O)/C(C)=C\C=C\[C@H](C)[C@H](O)[C@@H](C)[C@@H](O)[C@@H](C)[C@H](OC(C)=O)[C@@H]1C [B6, Rifampicin]",% TDP43 level,TDP-43,103%
"NS(=O)(=O)c1cc2c(cc1C(F)(F)F)NCNS2(=O)=O [B8, Hydroflumethiazide]",% TDP43 level,TDP-43,89%
C[N+](C)(C)C[C@H](O)CC(=O)[O-] [L-carnitine],protection from toxicity induced by B10,rats,protected rats from the toxicity of B10
"Nc1ccc(S(=O)(=O)c2ccc(N)cc2)cc1 [B7, Dapsone]",% TDP43 level,TDP-43,100%
"OCCN1CCN(CCCN2c3ccccc3Sc3ccc(Cl)cc32)CC1 [B5, Perphenazine]",% TDP43 level,TDP-43,85%
